Data from article PMC7825493, “Characterization of LDD-2633 as a Novel RET Kinase Inhibitor with Anti-Tumor Effects in Thyroid Cancer” (Pharmaceuticals, 2021).
Where a name gives a salt, the structure may show the parent alone.

Biological target: RET kinase (Homo sapiens, UniProt P07949)
Test: HTRF KinEASE-TK (TR-FRET) kinase assay with recombinant RET, […] ATP
Format: biochemical

RET kinase, sequence (P07949 29-1114): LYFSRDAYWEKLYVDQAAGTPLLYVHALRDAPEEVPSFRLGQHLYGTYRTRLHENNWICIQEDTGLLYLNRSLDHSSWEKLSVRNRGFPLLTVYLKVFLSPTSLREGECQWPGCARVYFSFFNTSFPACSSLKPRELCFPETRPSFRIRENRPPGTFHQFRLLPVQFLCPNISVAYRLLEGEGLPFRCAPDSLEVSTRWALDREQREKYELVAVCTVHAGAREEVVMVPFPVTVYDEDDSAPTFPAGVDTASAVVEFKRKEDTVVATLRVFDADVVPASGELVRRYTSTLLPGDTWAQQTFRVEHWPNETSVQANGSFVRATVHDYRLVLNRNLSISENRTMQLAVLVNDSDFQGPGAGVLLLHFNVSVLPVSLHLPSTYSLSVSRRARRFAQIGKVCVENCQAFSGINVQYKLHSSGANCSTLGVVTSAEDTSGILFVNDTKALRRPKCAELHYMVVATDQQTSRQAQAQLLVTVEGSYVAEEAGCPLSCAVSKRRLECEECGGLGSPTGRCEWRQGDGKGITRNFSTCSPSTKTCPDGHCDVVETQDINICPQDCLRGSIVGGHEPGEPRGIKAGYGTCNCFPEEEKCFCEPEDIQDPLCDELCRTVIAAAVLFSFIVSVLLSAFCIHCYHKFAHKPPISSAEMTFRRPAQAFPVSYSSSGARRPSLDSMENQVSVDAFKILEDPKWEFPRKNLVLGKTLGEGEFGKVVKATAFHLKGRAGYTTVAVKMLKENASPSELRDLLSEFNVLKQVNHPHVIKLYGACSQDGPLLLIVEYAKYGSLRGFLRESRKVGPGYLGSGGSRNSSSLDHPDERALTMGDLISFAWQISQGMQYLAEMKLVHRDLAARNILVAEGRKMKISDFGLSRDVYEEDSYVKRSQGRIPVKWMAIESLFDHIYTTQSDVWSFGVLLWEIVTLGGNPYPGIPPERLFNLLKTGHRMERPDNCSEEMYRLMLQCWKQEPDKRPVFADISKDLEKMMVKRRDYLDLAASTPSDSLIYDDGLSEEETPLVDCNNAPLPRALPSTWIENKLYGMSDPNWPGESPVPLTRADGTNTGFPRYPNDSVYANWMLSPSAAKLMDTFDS

IC50: 4.42 nM
SMILES: O=C1Nc2ccccc2/C1=C1/Nc2ccccc2/C1=N\OCCN1CCNCC1 [LDD-2633, (2Z,3E)-3-((2-(piperazin-1-yl)ethoxy)imino)-[2,3′-biindolinylidene]-2′-one hydrochloride]
